How the values were obtained:
CHK1 kinase = molecular target: T1, CHK1 kinase (Homo sapiens, UniProt O14757); experiment: CHK1 degradation in A375 melanoma cells, western blotting; type: cell-based; details: western blot; for degradation of CHK1 kinase: 18 h treatment, 37° C., FIG. 6
T1 construct: endogenous in cells; host or cells: A375 human malignant melanoma cells (ATCC)
T1 sequence (O14757 1-476): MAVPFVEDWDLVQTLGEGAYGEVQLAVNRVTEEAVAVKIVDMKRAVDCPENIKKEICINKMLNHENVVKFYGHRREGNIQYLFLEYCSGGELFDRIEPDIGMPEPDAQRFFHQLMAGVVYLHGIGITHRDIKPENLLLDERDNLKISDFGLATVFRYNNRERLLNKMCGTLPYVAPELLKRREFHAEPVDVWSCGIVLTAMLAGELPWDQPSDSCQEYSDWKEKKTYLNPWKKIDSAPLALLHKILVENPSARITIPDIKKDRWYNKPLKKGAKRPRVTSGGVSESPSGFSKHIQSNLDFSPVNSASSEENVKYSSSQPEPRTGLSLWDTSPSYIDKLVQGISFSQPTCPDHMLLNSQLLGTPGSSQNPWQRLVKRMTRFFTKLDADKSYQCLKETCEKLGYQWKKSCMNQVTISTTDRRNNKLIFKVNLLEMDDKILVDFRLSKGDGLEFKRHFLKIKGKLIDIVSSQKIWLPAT
Description: (§1) Tests were performed to determine the activity of the exemplary PROTACs PEG1-thalidomide, PEG2-thalidomide, PEG3-thalidomide, and PEG4-thalidomide having the structures shown above. Human A375 malignant melanoma cells were obtained from American Type Culture Collection ATCC) and cultured according to ATCC protocols. Subsequently cells were treated with the PROTACs for 18 h at 37° C. and 5% CO2. Subsequently cells were harvested and lysed using commercially available lysis buffer (Biorad) containing Roche cOmplete™ Protease Inhibitor Cocktail tablets. The amount of degraded proteins were probed with specific antibodies purchased from Cell Signaling in western blotting. α-Tubulin was used as the loading control.
In further tests, human A375 malignant melanoma cells were treated with PEG2-thalidomide at different concentrations for 12 h at 37° C. and 5% CO2. Proteins CHK1, GAPDH, and α-Tubulin were probed by specific antibodies. GAPDH and α-Tubulin were used as the loading control. […] Cell culture conditions, lysis and western blotting were performed similar to above.

MEK kinase = experiment: MEK degradation in A375 melanoma cells, western blotting; type: cell-based, human; details: 12 h, western blot, FIG. 8
Description: as §1
(§2) In further tests, the effect of PEG2-Thalidomide degrader […] was tested. Human A375 malignant melanoma cells were treated with PEG2-thalidomide for 12 h at 37° C. and 5% CO2. Proteins MEK and ERK were probed by specific antibodies. The procedure used was similar to the one outlined above.

ERK kinase = experiment: ERK degradation in A375 melanoma cells, western blotting; type: cell-based, human; details: 12 h, western blot, FIG. 8
Description: as §1, §2

[1] = test system: A375 malignant melanoma cells; experiment: A375 cell viability, CellTiter Glo assay; type: cell-based; details: Homo sapiens, A-375, 48 h treatment, 384 well plates, FIG. 10
Description: In further tests, human A375 malignant melanoma cells were treated with PEG2-thalidomide for 48 h at 37° C. and 5% CO2. Subsequently, the viability of A375 malignant melanoma cells was checked using CellTiter Glo assay (Promega) in 384 well plates, and the luminescence signal was quantified using Biotek H1 plate reader.

| Compound | degradation of CHK1 kinase (CHK1 kinase) | dose response of degradation of CHK1 (CHK1 kinase; different concentrations, 12 h, FIG. 7) | degradation of MEK kinase (MEK kinase) | degradation of ERK kinase (ERK kinase) | IC50 [1] [nM] |
| --- | --- | --- | --- | --- | --- |
| N#CCc1ccc(Nc2nc(Nc3cc(C4CC4)[nH]n3)cc(C(=O)NCc3cn(CCOCCOCCNC(=O)COc4cccc5c4C(=O)N(C4CCC(=O)NC4=O)C5=O)nn3)n2)cc1 (stereo not drawn) [PEG2-thalidomide] | degrade the protein CHK1 | demonstrating its degradation | degradation of MEK | not ERK | 768 |
| N#CCc1ccc(Nc2nc(Nc3cc(C4CC4)[nH]n3)cc(C(=O)NCc3cn(CCOCCOCCOCCOCCNC(=O)COc4cccc5c4C(=O)N(C4CCC(=O)NC4=O)C5=O)nn3)n2)cc1 (stereo not drawn) [PEG4-thalidomide] | degrade the protein CHK1 | – | – | – | – |

Source: patent US12517113B2, “Multikinase degraders” (University of Houston System, priority 2019, dated 2026)
